According to paper PMC10033419, “Blocking NS3–NS4B interaction inhibits dengue virus in non-human primates” (Nature, 2023):

Tested on: DENV-1/45AZ5
Test: NHP DENV-1 study, serum viral RNA RT-qPCR
Assay type: in vivo, rhesus macaques
Conditions: for qRT-PCR Assay Average GE/mL: LOQ 100 GE/reaction
Experimental: WRAIR is fully accredited by AAALAC International.
Serum samples from macaques were checked for the presence of DENV-1 RNA. Viral RNA for RT–qPCR was extracted from 100–200 µl of serum using the QIAcube instrumentation and the QIAGEN Viral RNA extraction kits. The primers and fluorogenic probes used in the RT–qPCR assays have been previously described[63],[64]. DENV-1 RNA was detected in a 25 µl reaction containing 5 µl of extracted RNA sample, 10 pmol of dengue-specific primers and 5 pmol dengue probe in the reaction mixture from Superscript Ill Platinum One-Step Quantitative RT-PCR Kit (Invitrogen, Thermo Fisher Scientific), consisting of 0.5 µl Superscript III RT/Platinum mix, 12.5 µl 2× reaction mix and 0.05 µl ROX reference dye. The one-step RT–qPCR comprises a 30 min RT step at 50 °C and 2 min of Taq polymerase activation at 94 °C, followed by 40 cycles of PCR at 94 °C for 5 s and 53 °C for 35 s performed in an ABI 7500DX Fast Real Time PCR system. Each assay included positive, negative and non-template controls. The RNA copy number was calculated from a standard curve of tenfold serial dilutions made from RNA in vitro transcripts consisting of DENV-1 with known copy numbers. The LLOQ was 100 genomic copies per reaction.
This sample size was sufficient to detect a significant difference in the number of infected animals in each of the groups as low as 83%. […] Sample processing and conducting of assays was performed by laboratory technicians not involved in the treatment/manipulation of the animals.

SMILES: COc1cc(N[C@H](C(=O)c2c[nH]c3ccc(OC(F)(F)F)cc23)c2ccc(Cl)cc2OC)cc(S(C)(=O)=O)c1 [JNJ-1802]
- DENV RNA (6 mg per kg per day q.d.): remained undetectable during the complete study period
- qRT-PCR Assay Result (animal R7, Day 0): Negative
- qRT-PCR Assay Average GE/mL (animal R7, Day 0): 0.00E+00 GE/mL
- qRT-PCR Assay Result (animal R7, Day 1): Negative
- qRT-PCR Assay Average GE/mL (animal R7, Day 1): 0.00E+00 GE/mL
- qRT-PCR Assay Result (animal R7, Day 2): Negative
- qRT-PCR Assay Average GE/mL (animal R7, Day 2): 0.00E+00 GE/mL
- qRT-PCR Assay Result (animal R7, Day 3): Negative
- qRT-PCR Assay Average GE/mL (animal R7, Day 3): 0.00E+00 GE/mL
- qRT-PCR Assay Result (animal R7, Day 4): Negative
- qRT-PCR Assay Average GE/mL (animal R7, Day 4): 0.00E+00 GE/mL
- qRT-PCR Assay Result (animal R7, Day 5): Negative
- qRT-PCR Assay Average GE/mL (animal R7, Day 5): 0.00E+00 GE/mL
- qRT-PCR Assay Result (animal R7, Day 6): Negative
- qRT-PCR Assay Average GE/mL (animal R7, Day 6): 0.00E+00 GE/mL
- qRT-PCR Assay Result (animal R7, Day 7): Negative
- qRT-PCR Assay Average GE/mL (animal R7, Day 7): 0.00E+00 GE/mL
- qRT-PCR Assay Result (animal R7, Day 8): Negative
- qRT-PCR Assay Average GE/mL (animal R7, Day 8): 0.00E+00 GE/mL
- qRT-PCR Assay Result (animal R7, Day 9): Negative
- qRT-PCR Assay Average GE/mL (animal R7, Day 9): 0.00E+00 GE/mL
- qRT-PCR Assay Result (animal R7, Day 10): Negative
- qRT-PCR Assay Average GE/mL (animal R7, Day 10): 0.00E+00 GE/mL
- qRT-PCR Assay Result (animal R7, Day 11): Negative
- qRT-PCR Assay Average GE/mL (animal R7, Day 11): 0.00E+00 GE/mL
- qRT-PCR Assay Result (animal R7, Day 14): Negative
- qRT-PCR Assay Average GE/mL (animal R7, Day 14): 0.00E+00 GE/mL
- qRT-PCR Assay Result (animal R7, Day 29): Negative
- qRT-PCR Assay Average GE/mL (animal R7, Day 29): 0.00E+00 GE/mL
- qRT-PCR Assay Result (animal R8, Day 0): Negative
- qRT-PCR Assay Average GE/mL (animal R8, Day 0): 0.00E+00 GE/mL
- qRT-PCR Assay Result (animal R8, Day 1): Negative
- qRT-PCR Assay Average GE/mL (animal R8, Day 1): 0.00E+00 GE/mL
- qRT-PCR Assay Result (animal R8, Day 2): Negative
- qRT-PCR Assay Average GE/mL (animal R8, Day 2): 0.00E+00 GE/mL
- qRT-PCR Assay Result (animal R8, Day 3): Negative
- qRT-PCR Assay Average GE/mL (animal R8, Day 3): 0.00E+00 GE/mL
- qRT-PCR Assay Result (animal R8, Day 4): Negative
- qRT-PCR Assay Average GE/mL (animal R8, Day 4): 0.00E+00 GE/mL
- qRT-PCR Assay Result (animal R8, Day 5): Negative
- qRT-PCR Assay Average GE/mL (animal R8, Day 5): 0.00E+00 GE/mL
- qRT-PCR Assay Result (animal R8, Day 6): Negative
- qRT-PCR Assay Average GE/mL (animal R8, Day 6): 0.00E+00 GE/mL
- qRT-PCR Assay Result (animal R8, Day 7): Negative
- qRT-PCR Assay Average GE/mL (animal R8, Day 7): 0.00E+00 GE/mL
- qRT-PCR Assay Result (animal R8, Day 8): Negative
- qRT-PCR Assay Average GE/mL (animal R8, Day 8): 0.00E+00 GE/mL
- qRT-PCR Assay Result (animal R8, Day 9): Negative
- qRT-PCR Assay Average GE/mL (animal R8, Day 9): 0.00E+00 GE/mL
- qRT-PCR Assay Result (animal R8, Day 10): Negative
- qRT-PCR Assay Average GE/mL (animal R8, Day 10): 0.00E+00 GE/mL
- qRT-PCR Assay Result (animal R8, Day 11): Negative
- qRT-PCR Assay Average GE/mL (animal R8, Day 11): 0.00E+00 GE/mL
- qRT-PCR Assay Result (animal R8, Day 14): Negative
- qRT-PCR Assay Average GE/mL (animal R8, Day 14): 0.00E+00 GE/mL
- qRT-PCR Assay Result (animal R8, Day 29): Negative
- qRT-PCR Assay Average GE/mL (animal R8, Day 29): 0.00E+00 GE/mL
- qRT-PCR Assay Result (animal R9, Day 0): Negative
- qRT-PCR Assay Average GE/mL (animal R9, Day 0): 0.00E+00 GE/mL
- qRT-PCR Assay Result (animal R9, Day 1): Negative
- qRT-PCR Assay Average GE/mL (animal R9, Day 1): 0.00E+00 GE/mL
- qRT-PCR Assay Result (animal R9, Day 2): Negative
- qRT-PCR Assay Average GE/mL (animal R9, Day 2): 0.00E+00 GE/mL
- qRT-PCR Assay Result (animal R9, Day 3): Negative
- qRT-PCR Assay Average GE/mL (animal R9, Day 3): 0.00E+00 GE/mL
- qRT-PCR Assay Result (animal R9, Day 4): Negative
- qRT-PCR Assay Average GE/mL (animal R9, Day 4): 0.00E+00 GE/mL
- qRT-PCR Assay Result (animal R9, Day 5): Negative
- qRT-PCR Assay Average GE/mL (animal R9, Day 5): 0.00E+00 GE/mL
- qRT-PCR Assay Result (animal R9, Day 6): Negative
- qRT-PCR Assay Average GE/mL (animal R9, Day 6): 0.00E+00 GE/mL
- qRT-PCR Assay Result (animal R9, Day 7): Negative
- qRT-PCR Assay Average GE/mL (animal R9, Day 7): 0.00E+00 GE/mL
- qRT-PCR Assay Result (animal R9, Day 8): Negative
- qRT-PCR Assay Average GE/mL (animal R9, Day 8): 0.00E+00 GE/mL
- qRT-PCR Assay Result (animal R9, Day 9): Negative
- qRT-PCR Assay Average GE/mL (animal R9, Day 9): 0.00E+00 GE/mL
- qRT-PCR Assay Result (animal R9, Day 10): Negative
- qRT-PCR Assay Average GE/mL (animal R9, Day 10): 0.00E+00 GE/mL
- qRT-PCR Assay Result (animal R9, Day 11): Negative
- qRT-PCR Assay Average GE/mL (animal R9, Day 11): 0.00E+00 GE/mL
- qRT-PCR Assay Result (animal R9, Day 14): Negative
- qRT-PCR Assay Average GE/mL (animal R9, Day 14): 0.00E+00 GE/mL
- qRT-PCR Assay Result (animal R9, Day 29): Negative
